Holding throughout (test): MIC by broth microdilution (CLSI)
Common to all, as to assay type: cell-based
A general note: Broth dilution looks for growth in wells or tubes with falling amounts of substance.

For test [1], the system named is E. coli ATCC 25922 (HAV#006). Particulars: Escherichia coli, ATCC25922, 24 h, read-out: MIC E. coli ATCC 25922. An outline of the steps:
(§1)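 Broth microdilution per CLSI in cation-adjusted Mueller-Hinton broth, inoculum 5×10^5 CFU/mL, compounds 64-0.06 μg/mL with 2.5% final DMSO. The MIC is the lowest concentration preventing visible growth after 24 h, in μg/mL. For P. aeruginosa the broth was pre-treated with Chelex 100 resin.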

Another test relates to E. coli Clinical (armA). Particulars: Escherichia coli, 24 h, read-out: MIC E. coli Clinical (armA). In short, it runs like this:
as §1

A further test concerns E. coli lptD mutant. As to conditions: Escherichia coli, 24 h, read-out: MIC E. coli lptD mutant, lptD mutant / ΔlptD mutant; CaMHB, 24 h incubation. In short, it runs like this:
as §1

Another test has as its system E. coli ΔtolC. Particulars: Escherichia coli, 24 h, read-out: MIC E. coli ΔtolC, ΔtolC; CaMHB, 24 h incubation. An outline of the steps: as §1
The test system of test [2] is E. faecalis ATCC 29212 (HAV#005). As to conditions: Enterococcus faecalis, ATCC29212, 24 h, read-out: MIC E. faecalis ATCC 29212. An outline of the steps: as §1
For a further test, the system named is K. pneumoniae JMI-991193. As to conditions: Klebsiella pneumoniae, JMI991193, 24 h, read-out: MIC K. pneumoniae JMI-991193. In short, it runs like this: as §1
In test [3] the test system is S. aureus ATCC 29213 (HAV#001). As to conditions: Staphylococcus aureus, ATCC29213, 24 h, read-out: MIC S. aureus ATCC 29213. In short, it runs like this: as §1
The subject of another test is S. aureus Clinical (cfr). Particulars: Staphylococcus aureus, 24 h, read-out: MIC S. aureus Clinical (cfr). In short, it runs like this: as §1
A further test concerns S. aureus MMX 3035. As to conditions: Staphylococcus aureus, MMX3035, 24 h, read-out: MIC S. aureus MMX 3035. In short, it runs like this:
as §1

The test system of test [4] is A. baumannii ATCC 19606 (HAV#010). As to conditions: Acinetobacter baumannii, ATCC19606, 24 h, HAV#010, ATCC 19606; CaMHB, 24 h incubation; read-out: MIC A. baumannii ATCC 19606. In short, it runs like this: as §1
For a further test, the system named is E. coli HAV#038, ΔTolC. As to conditions: Escherichia coli, 24 h, read-out: MIC E. coli HAV#038, ΔTolC. In short, it runs like this:
as §1

Another test relates to E. coli HAV#040, LptD. Particulars: Escherichia coli, 24 h, read-out: MIC E. coli HAV#040, LptD. An outline of the steps: as §1
The test system of test [5] is K. pneumoniae HAV#402, FQ-R. As to conditions: Klebsiella pneumoniae; FQ-R; CaMHB, 24 h incubation; read-out: MIC K. pneumoniae HAV#402, FQ-R. An outline of the steps:
as §1

Test [6] concerns S. aureus HAV#031, c-ermA. Particulars: Staphylococcus aureus; c-ermA; CaMHB, 24 h incubation; read-out: MIC S. aureus HAV#031, c-ermA. An outline of the steps: as §1
A further test deals with S. aureus HAV#216, cfr. Particulars: Staphylococcus aureus; cfr; CaMHB, 24 h incubation; read-out: MIC S. aureus HAV#216, cfr. An outline of the steps: as §1
Test [7] concerns E. faecium HAV#318, VRE; clinical. As to conditions: Enterococcus faecium, CaMHB, 24 h incubation, read-out: MIC E. faecium HAV#318, VRE. In short, it runs like this: as §1
Where [8] appears, read: HAV#006, ATCC 25922, CaMHB, 24 h incubation.
[9] abbreviates: HAV#005, ATCC 29212, CaMHB, 24 h incubation.
The mark [10] stands for this setting: HAV#001, ATCC 29213, CaMHB, 24 h incubation.

Structures are written as SMILES. Where a name gives a salt, the structure may show the parent alone. Read-outs that look alike come from different tables or passages of the source.

Experimental findings from patent US20250270246A1, “LINCOSAMIDES AND USES THEREOF” (President and Fellows of Harvard College, priority 2022, published 2025) are described below.

As for `CC(C)C[C@@H]1CCO[C@@H]2[C@H](CN[C@@H]2C(=O)N[C@H]2[C@H]3O[C@H](S[C@H](CF)C/C=C\[C@H]2C)[C@H](O)[C@@H](O)[C@H]3O)C1` [FSA1609034, (4S,5aS,8S,8aR)—N-((1R,3S,7R,8R,9R,10R,11S,12R,Z)-3-(fluoromethyl)-10,11,12-trihydroxy-7-methyl-13-oxa-2-thiabicyclo[7.3.1]tridec-5-en-8-yl)-4-isobutyloctahydro-2H-oxepino[2,3-c]pyrrole-8-carboxamide formate salt], the MIC in test [1] is 1 µg/mL; in the test with E. coli Clinical (armA), 2 µg/mL; in the test with E. coli lptD mutant it was 0.25 µg/mL; in the test on E. coli ΔtolC, not above 0.06 µg/mL; in test [2], not above 0.06 µg/mL; in the test with K. pneumoniae JMI-991193, 2 µg/mL. The MIC in test [3] was not above 0.06 µg/mL; in the test on S. aureus Clinical (cfr) it was 0.25 µg/mL; in the test on S. aureus MMX 3035, 0.25 µg/mL.
`CC(C)C[C@@H]1CCO[C@@H]2[C@H](CN[C@@H]2C(=O)N[C@H]2[C@H]3O[C@H](SCCCCC2(C)C)[C@H](O)[C@@H](O)[C@H]3O)C1` [FSA1504068, (4S,5aS,8S,8aR)-4-isobutyl-N-((1R,8R,9R,10R,11S,12R)-10,11,12-trihydroxy-7,7-dimethyl-13-oxa-2-thiabicyclo[7.3.1]tridecan-8-yl) octahydro-2H-oxepino[2,3-c]pyrrole-8-carboxamide formate salt]: the MIC in [4] was more than 64 µg/mL; in test [1] (setting [8]), 64 µg/mL; in the test on E. coli HAV#038, ΔTolC it was 32 µg/mL; in the test with E. coli HAV#040, LptD, 64 µg/mL; in test [2] (setting [9]) it was 2 µg/mL; in [5], more than 64 µg/mL. The MIC was 0.5 µg/mL in test [3] (setting [10]); more than 64 µg/mL in test [6]; more than 64 µg/mL with S. aureus HAV#216, cfr.
For `CC(C)C[C@@H]1CCO[C@@H]2[C@H](CN[C@@H]2C(=O)N[C@H]2[C@H]3OC(SC/C=C/CC2(C)C)[C@H](O)C(O)C3O)C1` (single isomer, unassigned) [FSA1504066A, formate salt], the MIC in test [4] was 8 µg/mL; in [1] (setting [8]), 32 µg/mL; in the test on E. coli HAV#038, ΔTolC, 1 µg/mL; in the test with E. coli HAV#040, LptD, 2 µg/mL; in [7], 1 µg/mL; in [5], 32 µg/mL. Besides, the MIC in test [3] (setting [10]) was not above 0.06 µg/mL; in test [6] it was 4 µg/mL; with S. aureus HAV#216, cfr, more than 64 µg/mL.
`CC(C)C[C@@H]1CCO[C@@H]2[C@H](CN[C@@H]2C(=O)N[C@@H]2C/C=C\C[C@H](CNC(=O)c3ccc(F)cc3)S[C@H]3O[C@H]2[C@H](O)[C@H](O)[C@H]3O)C1` [FSA1608089, (4S,5aS,8S,8aR)—N-((1R,3R,8R,9R,10R,11S,12R,Z)-3-((4-fluorobenzamido)methyl)-10,11,12-trihydroxy-13-oxa-2-thiabicyclo[7.3.1]tridec-5-en-8-yl)-4-isobutyloctahydro-2H-oxepino[2,3-c]pyrrole-8-carboxamide formate salt]: the MIC is 16 µg/mL in test [1]; 64 µg/mL in the test on E. coli Clinical (armA); 1 µg/mL in the test on E. coli lptD mutant; 2 µg/mL with E. coli ΔtolC; 1 µg/mL in test [2]; more than 64 µg/mL in the test on K. pneumoniae JMI-991193. For the same molecule, the MIC worked out at 2 µg/mL in test [3], 8 µg/mL with S. aureus Clinical (cfr) and 8 µg/mL in the test on S. aureus MMX 3035.
As to `CC(C)C[C@@H]1CCO[C@@H]2[C@H](CN[C@@H]2C(=O)N[C@@H]2C/C=C\C[C@H](CN)S[C@H]3O[C@H]2[C@H](O)[C@H](O)[C@H]3O)C1` [FSA1608082, (4S,5aS,8S,8aR)—N-((1R,3R,8R,9R,10R,11S,12R,Z)-3-(aminomethyl)-10,11,12-trihydroxy-13-oxa-2-thiabicyclo[7.3.1]tridec-5-en-8-yl)-4-isobutyloctahydro-2H-oxepino[2,3-c]pyrrole-8-carboxamide hydrochloride salt], the MIC in [1] was 32 µg/mL; in the test with E. coli Clinical (armA) it was 64 µg/mL; with E. coli lptD mutant it was 1 µg/mL; with E. coli ΔtolC, 2 µg/mL; in test [2] it was 2 µg/mL; with K. pneumoniae JMI-991193, more than 64 µg/mL. In addition, the MIC in test [3] stood at 1 µg/mL; with S. aureus Clinical (cfr), 16 µg/mL; with S. aureus MMX 3035 it was 16 µg/mL.
As to `CC(C)C[C@@H]1CCO[C@@H]2[C@H](CN[C@@H]2C(=O)N[C@@H]2C/C=C\C[C@@H](CN)S[C@H]3O[C@H]2[C@H](O)[C@H](O)[C@H]3O)C1` [FSA1608083, (4S,5aS,8S,8aR)—N-((1R,3S,8R,9R,10R,11S,12R,Z)-3-(aminomethyl)-10,11,12-trihydroxy-13-oxa-2-thiabicyclo[7.3.1]tridec-5-en-8-yl)-4-isobutyloctahydro-2H-oxepino[2,3-c]pyrrole-8-carboxamide hydrochloride salt], the MIC in [1] was 16 µg/mL; in the test with E. coli Clinical (armA), 64 µg/mL; with E. coli lptD mutant it was 1 µg/mL; in the test on E. coli ΔtolC, 2 µg/mL; in test [2] it was 1 µg/mL; in the test on K. pneumoniae JMI-991193, more than 64 µg/mL. Besides, the MIC in test [3] worked out at 1 µg/mL; in the test with S. aureus Clinical (cfr), 32 µg/mL; in the test with S. aureus MMX 3035 it was 16 µg/mL.
In the case of `CC(C)C[C@@H]1CCO[C@@H]2[C@H](CN[C@@H]2C(=O)N[C@H]2C3OC(SC/C=C\CC2(C)C)C(O)C(O)C3O)C1` (single isomer, unassigned) [FSA1504066B, formate salt], the MIC in [4] came to 64 µg/mL; in test [1] (setting [8]), 64 µg/mL; in the test on E. coli HAV#038, ΔTolC, 32 µg/mL; with E. coli HAV#040, LptD, 64 µg/mL; in [7] it was 4 µg/mL; in test [5], 64 µg/mL. For the same molecule, the MIC is 0.5 µg/mL in test [3] (setting [10]); 32 µg/mL in test [6]; more than 64 µg/mL in the test on S. aureus HAV#216, cfr.
Regarding `CC(C)C[C@@H]1CCO[C@@H]2[C@H](CN[C@@H]2C(=O)N[C@@H]2C/C=C\C[C@@H](CNC(=O)c3ccc(F)cc3)S[C@H]3O[C@H]2[C@H](O)[C@H](O)[C@H]3O)C1` [FSA1608088, (4S,5aS,8S,8aR)—N-((1R,3S,8R,9R,10R,11S,12R,Z)-3-((4-fluorobenzamido)methyl)-10,11,12-trihydroxy-13-oxa-2-thiabicyclo[7.3.1]tridec-5-en-8-yl)-4-isobutyloctahydro-2H-oxepino[2,3-c]pyrrole-8-carboxamide formate salt], the MIC in test [1] was found to be 8 µg/mL; in the test on E. coli Clinical (armA), 16 µg/mL; in the test with E. coli lptD mutant it was 0.5 µg/mL; with E. coli ΔtolC it was 2 µg/mL; in test [2] it was 1 µg/mL; with K. pneumoniae JMI-991193, 32 µg/mL. The MIC was determined as 1 µg/mL in [3], 8 µg/mL in the test on S. aureus Clinical (cfr) and 8 µg/mL in the test on S. aureus MMX 3035.
Consider `CC(C)C[C@@H]1CCO[C@@H]2[C@H](CN[C@@H]2C(=O)N[C@@H]2CC(C)(C)/C=C/CS[C@H]3O[C@H]2[C@H](O)[C@H](O)[C@H]3O)C1` [FSA1503085, (4S,5aS,8S,8aR)-4-isobutyl-N-((1R,8R,9R,10R,11S,12R,E)-10,11,12-trihydroxy-6,6-dimethyl-13-oxa-2-thiabicyclo[7.3.1]tridec-4-en-8-yl) octahydro-2H-oxepino[2,3-c]pyrrole-8-carboxamide formate salt], for which the MIC was 64 µg/mL in test [4]; 64 µg/mL in test [1] (setting [8]); 4 µg/mL with E. coli HAV#038, ΔTolC; 8 µg/mL in the test on E. coli HAV#040, LptD; 0.25 µg/mL in test [2] (setting [9]); more than 64 µg/mL in test [5]. The MIC in test [3] (setting [10]) was found to be 0.25 µg/mL; in test [6], 32 µg/mL; in the test with S. aureus HAV#216, cfr, 8 µg/mL.
